This is an account of results in US20080125432A1 (Devgen NV, priority 2004, published 2008).

This data set has as its target T1, hERG potassium channel (Homo sapiens, UniProt Q12809).
T1 construct: host or cells: HEK 293 T-REx
The experiment in a line: Whole cell patch clamp, HEK 293 T-REx HERG cells. Format: cell-based. The text has this:
For this experiment HEK 293 T-REx HERG cells (#23) were used. This cell line made by IonGate is characterized by the inducible expression of the hERG gene. The T-REx™ System (Invitrogen, Karlsruhe, Germany) is a tetracycline-regulated mammalian expression system that uses regulatory elements from the E. coli Tn10-encoded tetracycline (Tet) resistance operon. In the absence of Tet the expression is repressed. Tetracycline regulation in the T-REx™ System is based on the binding of tetracycline to the Tet repressor and derepression of the promoter controlling expression of the hERG gene. Addition of Tet to the cell culture media results in expression of the hERG potassium channel.
To construct the HEK 293 T-REx HERG cell line, the hERG gene was ligated into the inducible expression vector pcDNA4/TO (→pc4TO-HERG) and transfected into HEK 293 T-REx cells (this cell line stably expresses the Tet repressor and was purchased at Invitrogen). Stable cell clones were isolated after selection with Blasticidin (5 μg/ml) and Zeocin™ (300 μg/ml). The clones were electrophysiological characterized after induction with 1 μg/ml Tet.
Experiments were performed using the patch clamp set-up. Technical equipment needed for manipulation of the cells was placed on a vibration-isolated table and shielded with a Faraday cage to minimize electrical noise. The amplifier and control system were placed in a rack outside the Faraday cage. The system consisted of an EPC9 or EPC10 patch clamp amplifier (HEKA, Lambrecht, Germany), and the perfusion system DADVC8 (ALA Scientific, New York, USA) controlled by the Pulse software package (HEKA, Lambrecht, Germany) installed on a personal computer.
The cells used for this experiment were kept in continuous culture under standard conditions (37° C., air supplemented with 5% CO2). The HEK 293 T-REx HERG cells were kept in minimal essential medium (MEM) supplemented with 100 U/ml Penicillin, 100 μg/ml Streptomycin, 10% fetal calf serum (FCS), 1% non-essential amino acids (NEAA), 2.5 μg/ml amphotericin, 300 μg/ml Zeocin™ and 5 μg/ml Blasticidin. Cells were passed every 3-4 days after detachment using a Trypsin solution. The quality of the cultured cells was guaranteed by vitality and contamination tests. The culture of the cells was performed as described in protocol D described above.
At least 18 hours prior to electrophysiological experiments the cells were detached by application of iced PBS (phosphate buffered saline) or Trypsin and replated on cover slips. 1 μg/ml Tet was added to the cells to induce hERG expression.
Activity of the cardiac hERG channel was investigated using the patch clamp technique in its whole cell mode. This means that the current needed for clamping the whole cell expressing the K^+-channel protein to a specific potential was measured. The pipettes used for patch clamping were made of borosilicate glass. Measurements were performed at room temperature (20-25° C.). In each experiment (i.e. each cell) only one concentration of the compound was investigated no cumulative dosages were performed. Each cell acted as its own control. […]
After the whole cell configuration was established a series of pulses was applied to check for hERG expression and to optimize amplifier settings. However, only the following measurements were used for data analysis: 15 test pulses (FIG. 4a and Table 6a) were applied at 0.1 Hz (series 1) under constant superfusion with bath solution. The protocol was initiated by a leak test at −40 mV (50 ms). […] The maximum hERG tail current amplitude was measured at −40 mV (tail current test, 1.5 sec.). Only cells generating tail current amplitudes between 300 pA and 10 nA were used for the experimental procedure.
After successful characterization of the current another 10 test pulses were applied at 0.1 Hz while the cell was superfused with bath solution (series 2). […]
For orientation: In patch-clamp work, channel activity is measured electrically.

The structures appear in SMILES notation.

T1 sequence (Q12809 whole entry): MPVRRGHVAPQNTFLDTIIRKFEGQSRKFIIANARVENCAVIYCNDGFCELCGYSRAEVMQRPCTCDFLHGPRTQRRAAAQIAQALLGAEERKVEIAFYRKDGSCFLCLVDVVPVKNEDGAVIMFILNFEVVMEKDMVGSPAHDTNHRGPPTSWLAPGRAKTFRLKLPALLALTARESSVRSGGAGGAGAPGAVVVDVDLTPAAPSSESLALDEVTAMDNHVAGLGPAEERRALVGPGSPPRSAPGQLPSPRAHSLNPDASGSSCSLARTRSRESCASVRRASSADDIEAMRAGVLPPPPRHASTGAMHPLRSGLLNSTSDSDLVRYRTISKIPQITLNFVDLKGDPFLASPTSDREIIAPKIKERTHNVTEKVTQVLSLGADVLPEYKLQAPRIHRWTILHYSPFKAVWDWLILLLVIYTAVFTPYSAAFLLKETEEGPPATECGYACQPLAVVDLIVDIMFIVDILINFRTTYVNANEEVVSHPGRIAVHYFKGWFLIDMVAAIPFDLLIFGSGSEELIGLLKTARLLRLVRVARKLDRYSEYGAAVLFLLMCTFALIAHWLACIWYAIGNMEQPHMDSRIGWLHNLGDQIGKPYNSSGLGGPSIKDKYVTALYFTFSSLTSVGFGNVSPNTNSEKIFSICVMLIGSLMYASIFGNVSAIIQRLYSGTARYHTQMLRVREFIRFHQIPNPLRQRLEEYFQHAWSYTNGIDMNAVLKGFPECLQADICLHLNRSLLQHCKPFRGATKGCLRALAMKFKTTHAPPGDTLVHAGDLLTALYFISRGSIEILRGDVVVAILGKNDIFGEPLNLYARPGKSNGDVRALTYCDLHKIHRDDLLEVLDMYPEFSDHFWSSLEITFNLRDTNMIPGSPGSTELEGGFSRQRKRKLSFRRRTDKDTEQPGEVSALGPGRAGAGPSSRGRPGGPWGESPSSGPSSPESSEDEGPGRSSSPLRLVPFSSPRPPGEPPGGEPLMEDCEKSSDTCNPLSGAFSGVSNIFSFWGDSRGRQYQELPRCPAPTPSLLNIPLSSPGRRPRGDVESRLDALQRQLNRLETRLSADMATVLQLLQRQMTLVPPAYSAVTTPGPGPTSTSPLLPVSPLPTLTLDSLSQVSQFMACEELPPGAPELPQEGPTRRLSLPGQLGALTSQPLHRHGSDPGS

Compound `Cc1nc(Nc2ccc3occc3c2)sc1C(=O)N[C@H]1CCC[C@@H]1OCc1ccccc1` [Compound 126, 2-(benzofuran-5-ylamino)-4-methyl-thiazole-5-carboxylic acid ((1S,2S)-2-benzyloxycyclopent-1-yl) amide] registered a hERG (at 1 μM) of 74 at1 μM.
For `Cc1nc(NC(=O)c2ccc(C(C)(C)C)cc2)sc1C(=O)N[C@H]1CCC[C@@H]1OCc1ccccc1` [Compound 180, 2-(4-tert-butyl-benzoylamino)-4-methyl-thiazole-5-carboxylic acid ((1S,2S)-2-benzyloxycyclopent-1-yl) amide], the hERG (percent value, test concentration not given) amounted to 64%.
